Experiment: xn = mol fraction of the nth substance listed
Conditions: 303.15 K, 92.3 kPa, Liquid; for viscosity: Concentric cylinders viscometry; for speed of sound: Frequency=3 MHz, Single path-length method; for mass density: Vibrating tube method

OCCOCCOCCO [triethylene glycol] + O
Conditions | mass density [kg/m3] | speed of sound [m/s] | viscosity [mPa·s]
x1 = 0.0101 | 1006.7 | 1546.6 | –
x1 = 0.0196 | 1016.05 | 1577.2 | –
x1 = 0.025 | 1021.12 | – | 1.425
x1 = 0.029 | 1025.03 | 1604.2 | –
x1 = 0.0381 | 1032.5 | 1626.5 | –
x1 = 0.0489 | 1040.16 | – | 2.135
x1 = 0.0496 | 1041.07 | 1650.4 | –
x1 = 0.0601 | 1048.1 | 1668.4 | –
x1 = 0.0689 | 1053.32 | 1680.7 | –
x1 = 0.0754 | 1056.69 | – | 3.109
x1 = 0.0801 | 1059.3 | 1693.4 | –
x1 = 0.0905 | 1064.27 | 1702.5 | –
x1 = 0.0993 | 1068.24 | – | 4.145
x1 = 0.0996 | 1068.21 | 1708.8 | –
x1 = 0.1479 | 1083.73 | 1722.1 | –
x1 = 0.15 | 1085.03 | – | 6.732
x1 = 0.1993 | 1094.5 | – | 9.456
x1 = 0.2004 | 1093.95 | 1716.5 | –
x1 = 0.2462 | 1099.63 | 1705.3 | –
x1 = 0.2526 | 1100.4 | – | 12.39
x1 = 0.2998 | 1103.65 | – | 14.86
x1 = 0.3004 | 1103.99 | 1690.6 | –
x1 = 0.3474 | 1106.59 | 1678.1 | –
x1 = 0.3539 | 1106.3 | – | 17.36
x1 = 0.3948 | 1108.5 | 1666.6 | –
x1 = 0.4009 | 1108.18 | – | 19.33
x1 = 0.4467 | 1110.04 | 1655.4 | –
x1 = 0.4492 | 1109.87 | – | 21.06
x1 = 0.4992 | 1111.36 | – | 22.58
x1 = 0.5021 | 1111.28 | 1644.9 | –
x1 = 0.548 | 1112.08 | 1637.5 | –
x1 = 0.5484 | 1112.51 | – | 23.9
x1 = 0.5923 | 1112.73 | 1631 | –
x1 = 0.5996 | 1113.32 | – | 24.96
x1 = 0.6442 | 1113.33 | 1624.5 | –
x1 = 0.6506 | 1113.74 | – | 25.86
x1 = 0.701 | 1113.89 | – | 26.76
x1 = 0.7095 | 1113.94 | 1617.7 | –
x1 = 0.7531 | 1114.3 | 1613.4 | –
x1 = 0.7567 | 1113.98 | – | 27.55
x1 = 0.7859 | 1114.55 | 1610.5 | –
x1 = 0.8035 | 1114.18 | – | 28.08
x1 = 0.8387 | 1114.87 | 1606.6 | –
x1 = 0.8406 | 1114.51 | – | 28.48
x1 = 0.8981 | 1115.27 | – | 28.88
x1 = 0.9031 | 1115.25 | 1602 | –
x1 = 0.9181 | 1115.31 | 1601.3 | –
x1 = 0.9344 | 1115.4 | 1600.4 | –
x1 = 0.9489 | 1115.8 | – | 29.26
x1 = 0.9569 | 1115.5 | 1599 | –
x1 = 0.9782 | 1115.59 | 1597.9 | –
x1 = 1 | 1115.7 | 1596.6 | 29.59
